Test system: Human umbilical vein endothelial cells (HUVECs)
Assay: eNOS activity analysis: NO, ONOO− and NO/ONOO− release from HUVECs of 50 genotyped donors in response to LA-419 (Example 2)
Format: cell-based
Details: for % Change ONOO− (mean ± sd) / % Change NO (mean ± sd) / % Change NO/ONOO− (mean ± sd): LA-419 5 μM vs control; for Fold difference NO production / Fold difference NO/ONOO− ratio: LA-419 5 μM/control; for % Change Ratio, % Change NO/% Change ONOO− (mean ± sd) / Net increase over control NO (mean ± sd) / Net increase over control NO/ONOO− (mean ± sd) / Net increase over control ONOO− (mean ± sd) / Peak release NO (mean ± sd) / Peak release NO/ONOO− (mean ± sd) / Peak release ONOO− (mean ± sd): LA-419 5 μM
Method: Concurrent measurements of NO and ONOO^− were carried out with tandem electrochemical nanosensors combined into one working unit with a total diameter of 200-500 nm (FIG. 1). Their design was based on previously developed and well-characterized chemically modified carbon-fiber technology (Malinski and Taha, 1992; Lvovich and Scheeline, 1997). Each of the nanosensors was made by depositing a sensing material on the tip of a carbon fiber (length 4-5 μm, diameter 0.2-0.5 μm). The fibers were sealed with nonconductive epoxy and electrically connected to copper wires with conductive silver epoxy. A conductive film of polymeric nickel (II) tetrakis(3-methoxy-4-hydroxyphenyl)porphyrin for the NO-sensor and polymeric film of Mn (III) [2.2]paracyclophanylporphyrin was used for the ONOO^−-sensor.
A module of NO/ONOO^− nanosensors (diameter 1-2 μm) with a platinum wire (0.1 mm) counter electrode and saturated calomel reference electrode (SCE) were applied. Differential pulse voltammetry (DPV) and amperometry were performed with a computer-based Gamry VFP600 multichannel potentiostat. DPV was used to measure the basal NO and ONOO^− concentrations, and amperometry was used to measure changes in NO and ONOO^− concentrations from its basal level with time. The DPV current at the peak potential characteristic for NO oxidation (0.65 V) and ONOO^− reduction (−0.45 V) was directly proportional to the local concentrations of these compounds in the immediate vicinity of the sensor. Linear calibration curves (current vs. concentration) were constructed for each sensor from 10 nM to 3 μM before and after measurements with aliquots of NO and ONOO^− standard solutions, respectively. The detection limit of the sensors was 1.0 nM.
The quantification of each analyte (concentration in nM) was performed using a maximum current from amperograms and standard calibration curves. A reproducibility of measurements with nanosensors is relatively high (between 5-12%). […] The sensors were slowly raised 5±2 μm from the surface of a single endothelial cell. The eNOS agonist, calcium ionophore A23187 (CaI) as well as the different drugs were then added to the surrounding media at the cell surface with a nanoinjector that was also positioned by a computer controlled-micromanipulator.
This example describes the genotype-specific response of the three major eNOS variants to 1 μM and 5 μM concentrations of LA-419. The three major genetic polymorphisms studied were the Glu298Asp variant (E298D or 894G→T) in exon 7 of […], the −786T→C variant in the promoter region, and the intron 4 polymorphism (VNTR). All of these variants have possible effects on the cardiovascular system and endothelial dysfunction. For this study, human umbilical vein endothelial cells (HUVECs) from 50 donors between 18 and 32 years of age were used.
For the analysis several analysis techniques were employed. First, the effect of genotype on NO and ONOO^− release was explored within the different concentrations of LA-419 (control, 1 μM, 5 μM), calculated as the average peak release (nmols/L) of NO, ONOO^−, and NO/ONOO^−. The effect of genotype on the net increase in NO, ONOO^−, and NO/ONOO^− for LA-419 (1 μM and 5 μM) as compared to control was also measured. In addition, an analysis was done on the effect of genotype on the % change in NO, ONOO^−, and NO/ONOO^− production for LA-419 (1 μM and 5 μM), calculated as:
% Change=[(avg. LA-419−avg. control)/(avg. control)]*100
Finally, an evaluation was undertaken concerning the effect of genotype on the production of NO, ONOO^−, and NO/ONOO^− as the fold difference of control for LA-419 (1 μM and 5 μM), calculated as:
Fold Difference=(avg. LA-419)/(avg. control)
Within each calculation technique the results were compared for statistical significance using a non-parametric ANOVA Kruskal-Wallace test or a non-parametric Mann-Whitney U test. Statistical significance was set at a p-value <0.05 in a two-tailed distribution. […]

[1] = Caucasians, exon 7 major allele homozygote
[2] = Caucasians, exon 7 minor allele carriers
[3] = exon 7 major allele homozygote, all races
[4] = exon 7 minor allele carriers, all races
[5] = HUVECs G894T + T-786C Combination of all genotypes other than G/G + T/T
[6] = HUVECs G894T + T-786C variant G/G + T/C
[7] = HUVECs G894T + T-786C variant G/G + T/T (Reference)
[8] = HUVECs G894T + T-786C variant G/T + C/C
[9] = HUVECs G894T + T-786C variant G/T + T/C
[10] = HUVECs G894T + T-786C variant G/T + T/T
[11] = HUVECs G894T + T-786C variant T/T + C/C
[12] = HUVECs G894T + T-786C variant T/T + T/C

CC(=O)SC1COC2C(O[N+](=O)[O-])COC12 (stereo not drawn) [LA-419, S-(6-Nitro-oxi-hexahydro-furo[3,2-b]furan-3-1-il)thioacetate]
% Change ONOO− (mean ± sd) (HUVECs Intron 4 variant b/a): −19.70 (5.79) % | % Change NO (mean ± sd) (HUVECs Intron 4 variant b/b): 13.52 (6.80) % | % Change NO/ONOO− (mean ± sd) (HUVECs Intron 4 variant b/b): 42.24 (17.73) % | % Change ONOO− (mean ± sd) (HUVECs Intron 4 variant b/b): −19.19 (7.76) % | % Change NO (mean ± sd) (HUVECs Intron 4 variant c/c): 17.36 (0) % | % Change NO/ONOO− (mean ± sd) (HUVECs Intron 4 variant c/c): 52.87 (0) % | % Change ONOO− (mean ± sd) (HUVECs Intron 4 variant c/c): −22.99 (0) % | % Change NO (mean ± sd) (HUVECs T-786C variant C/C): 11.63 (5.99) % | % Change NO/ONOO− (mean ± sd) (HUVECs T-786C variant C/C): 42.33 (13.21) % | % Change ONOO− (mean ± sd) (HUVECs T-786C variant C/C): −21.03 (7.77) % | % Change NO (mean ± sd) (HUVECs T-786C variant T/C): 13.58 (6.82) % | % Change NO/ONOO− (mean ± sd) (HUVECs T-786C variant T/C): 38.74 (13.67) % | % Change ONOO− (mean ± sd) (HUVECs T-786C variant T/C): −17.73 (5.53) % | % Change NO (mean ± sd) (HUVECs T-786C variant T/T): 16.16 (5.97) % | % Change NO/ONOO− (mean ± sd) (HUVECs T-786C variant T/T): 49.09 (17.76) % | % Change ONOO− (mean ± sd) (HUVECs T-786C variant T/T): −20.98 (8.19) % | Fold difference NO production [1]: 1.19±0.07 | Fold difference NO/ONOO− ratio [1]: 1.47±0.12 | Fold difference NO production [2]: 1.11±0.05 | Fold difference NO/ONOO− ratio [2]: 1.35±0.10 | Fold difference NO production (Caucasians, promoter major allele variant): 1.17±0.08 | Fold difference NO production [3]: 1.16±0.06 | Fold difference NO/ONOO− ratio [3]: 1.48±0.18 | Fold difference NO production [4]: 1.13±0.06 | Fold difference NO/ONOO− ratio [4]: 1.39±0.13 | % Change Ratio, % Change NO/% Change ONOO− (mean ± sd) (HUVEC donor Race Asian): −0.50 (0) | % Change Ratio, % Change NO/% Change ONOO− (mean ± sd) (HUVEC donor Race Black): −0.79 (0.44) | % Change Ratio, % Change NO/% Change ONOO− (mean ± sd) (HUVEC donor Race Not Reported): −0.59 (0.08) | Net increase over control NO (mean ± sd) [5]: 46.78 (22.38) nmols/L | Net increase over control NO/ONOO− (mean ± sd) [5]: −0.87 (0.81) | Net increase over control ONOO− (mean ± sd) [5]: −68.74 (26.87) nmols/L | Peak release NO (mean ± sd) [5]: 398.12 (90.43) nmols/L | Peak release NO/ONOO− (mean ± sd) [5]: 1.43 (0.54) | Peak release ONOO− (mean ± sd) [5]: 304.95 (81.70) nmols/L | Net increase over control NO (mean ± sd) [6]: 51.58 (25.77) nmols/L | Net increase over control NO/ONOO− (mean ± sd) [6]: −0.78 (0.51) | Net increase over control ONOO− (mean ± sd) [6]: −66.54 (26.77) nmols/L | Peak release NO (mean ± sd) [6]: 397.25 (102.46) nmols/L | Peak release NO/ONOO− (mean ± sd) [6]: 1.56 (0.60) | Peak release ONOO− (mean ± sd) [6]: 277.33 (69.85) nmols/L | Net increase over control NO (mean ± sd) [7]: 56.59 (19.21) nmols/L | Net increase over control NO/ONOO− (mean ± sd) [7]: −0.88 (0.54) | Net increase over control ONOO− (mean ± sd) [7]: −77.59 (31.16) nmols/L | Peak release NO (mean ± sd) [7]: 399.67 (56.96) nmols/L | Peak release NO/ONOO− (mean ± sd) [7]: 1.48 (0.48) | Peak release ONOO− (mean ± sd) [7]: 293.93 (83.07) nmols/L | Net increase over control NO (mean ± sd) [8]: 46.00 (0) nmols/L | Net increase over control NO/ONOO− (mean ± sd) [8]: −1.01 (0) | Net increase over control ONOO− (mean ± sd) [8]: −45.67 (0) nmols/L | Peak release NO (mean ± sd) [8]: 434.33 (0) nmols/L | Peak release NO/ONOO− (mean ± sd) [8]: 1.72 (0) | Peak release ONOO− (mean ± sd) [8]: 252.67 (0) nmols/L | Net increase over control NO (mean ± sd) [9]: 43.72 (19.86) nmols/L | Net increase over control NO/ONOO− (mean ± sd) [9]: −0.83 (0.84) | Net increase over control ONOO− (mean ± sd) [9]: −65.59 (20.60) nmols/L | Peak release NO (mean ± sd) [9]: 387.90 (86.10) nmols/L | Peak release NO/ONOO− (mean ± sd) [9]: 1.34 (0.54) | Peak release ONOO− (mean ± sd) [9]: 318.33 (82.55) nmols/L | Net increase over control NO (mean ± sd) [10]: 52.83 (20.89) nmols/L | Net increase over control NO/ONOO− (mean ± sd) [10]: −1.29 (1.15) | Net increase over control ONOO− (mean ± sd) [10]: −71.50 (46.74) nmols/L | Peak release NO (mean ± sd) [10]: 433.58 (65.75) nmols/L | Peak release NO/ONOO− (mean ± sd) [10]: 1.71 (0.21) | Peak release ONOO− (mean ± sd) [10]: 252.92 (13.69) nmols/L | Net increase over control NO (mean ± sd) [11]: 35.33 (20.27) nmols/L | Net increase over control NO/ONOO− (mean ± sd) [11]: −0.36 (0.18) | Net increase over control ONOO− (mean ± sd) [11]: −94.89 (10.87) nmols/L | Peak release NO (mean ± sd) [11]: 348.78 (92.48) nmols/L | Peak release NO/ONOO− (mean ± sd) [11]: 1.19 (0.80) | Peak release ONOO− (mean ± sd) [11]: 345.56 (123.07) nmols/L | Net increase over control NO (mean ± sd) [12]: 53.00 (50.91) nmols/L | Net increase over control NO/ONOO− (mean ± sd) [12]: −1.41 (1.74) | Net increase over control ONOO− (mean ± sd) [12]: −64.83 (44.08) nmols/L | Peak release NO (mean ± sd) [12]: 453.00 (178.19) nmols/L | Peak release NO/ONOO− (mean ± sd) [12]: 1.23 (0.75) | Peak release ONOO− (mean ± sd) [12]: 397.67 (96.64) nmols/L | % Change Ratio, % Change NO/% Change ONOO− (mean ± sd) (HUVECs G894T variant G/G): −0.82 (0.40) | Net increase over control NO (mean ± sd) (HUVECs G894T variant G/G): 55.05 (21.03) nmols/L | Net increase over control NO/ONOO− (mean ± sd) (HUVECs G894T variant G/G): −0.85 (0.52) | Net increase over control ONOO− (mean ± sd) (HUVECs G894T variant G/G): −74.19 (29.80) nmols/L | Peak release NO (mean ± sd) (HUVECs G894T variant G/G): 398.92 (71.74) nmols/L | Peak release NO/ONOO− (mean ± sd) (HUVECs G894T variant G/G): 1.50 (0.51)
